Data as given in ChEMBL document CHEMBL1201862, “PubChem BioAssay data set” (2004).
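A five-concentration, 48-hour dose response in 96-well plates underlies each endpoint, interpolated linearly between surrounding concentrations. Abbreviation: GI50, concentration required for 50% inhibition of growth.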 Calls of active or inactive are those of the source. Rule as the data show it: active = GI50 up to about 1.1 µM and inactive = higher.

Legend:
Assay in all cases: inhibition of tumour cell growth, NCI panel, 48 h
ACHN = test system: ACHN
CCRF-CEM = test system: CCRF-CEM
HCC 2998 = test system: HCC 2998
KM12 = test system: KM12
M14 = test system: M14
OVCAR-5 = test system: OVCAR-5
OVCAR-8 = test system: OVCAR-8
RXF 393 = test system: RXF 393
SK-MEL-28 = test system: SK-MEL-28
SK-OV-3 = test system: SK-OV-3
SN12C = test system: SN12C
SR = test system: SR
UACC-62 = test system: UACC-62
HOP-92 = test system: HOP-92

Structure (SMILES) | GI50 (ACHN) | GI50 (CCRF-CEM) | GI50 (HCC 2998) | GI50 (KM12) | GI50 (M14) | GI50 (OVCAR-5) | GI50 (OVCAR-8) | GI50 (RXF 393) | GI50 (SK-MEL-28) | GI50 (SK-OV-3) | GI50 (SN12C) | GI50 (SR) | GI50 (UACC-62) | GI50 (HOP-92)
COC(=O)c1s/c(=N\C(=S)N(C)C)n(-c2ccc(Cl)cc2)c1C(=O)OC | > 100 µM (inactive) | > 100 µM (inactive) | > 100 µM (inactive) | > 100 µM (inactive) | > 100 µM (inactive) | > 100 µM (inactive) | > 100 µM (inactive) | 78.9 µM (inactive) | > 100 µM (inactive) | > 10 µM (inactive) | > 100 µM (inactive) | > 100 µM (inactive) | > 10 µM (inactive) | 
CCC1C(=O)OCc2c1cc1n(c2=O)C(CC)c2c-1nc1ccccc1c2Cl (configuration not stated) | 27.4 µM (inactive) | 11.6 µM (inactive) |  | 24.6 µM (inactive) | 33.7 µM (inactive) | 23.1 µM (inactive) |  |  | 35 µM (inactive) | 33.9 µM (inactive) |  |  | 18.2 µM (inactive) | 26.9 µM (inactive)
CCOC(=O)NC1CC2CCC1(OC)C=C2C (configuration not stated) | > 100 µM (inactive) | > 100 µM (inactive) | > 100 µM (inactive) | > 100 µM (inactive) | > 100 µM (inactive) | > 100 µM (inactive) | > 100 µM (inactive) | > 100 µM (inactive) | > 100 µM (inactive) | > 100 µM (inactive) | > 100 µM (inactive) | > 100 µM (inactive) | > 100 µM (inactive) | > 100 µM (inactive)
C[N+](C)(C)C.FC(F)(F)C1(C(F)(F)F)O[SiH-]2(OC(C(F)(F)F)(C(F)(F)F)c3ccccc32)c2ccccc21 | 22.8 µM (inactive) |  | 19.2 µM (inactive) | 19.9 µM (inactive) | 10 µM (inactive) | 13.2 µM (inactive) | 15.3 µM (inactive) | 13 µM (inactive) | 26.2 µM (inactive) |  | 18.1 µM (inactive) | 14.5 µM (inactive) |  | 
COc1cc([C@@H]2c3cc4c(cc3[C@@H](NC(=O)c3ccc(C(C)=O)cc3)C3COC(=O)[C@@H]32)OCO4)cc(OC)c1O (some centres not stated) | 0.189 µM (active) | 0.0849 µM (active) | 1.41 µM (inactive) | 1.36 µM (inactive) | 1.51 µM (inactive) | 0.895 µM (active) | 1.35 µM (inactive) | 3.76 µM (inactive) | 2.98 µM (inactive) | 1.56 µM (inactive) | 0.275 µM (active) |  | 0.206 µM (active) | 1.19 µM (inactive)
CC(=O)OC12c3ccccc3C1CCCC21OCCCO1 (configuration not stated) | > 100 µM (inactive) | > 100 µM (inactive) | > 100 µM (inactive) | > 100 µM (inactive) | > 100 µM (inactive) | > 100 µM (inactive) | > 100 µM (inactive) | > 100 µM (inactive) | > 100 µM (inactive) | > 100 µM (inactive) | > 100 µM (inactive) |  | > 100 µM (inactive) | 
CC1=CC(C)(C)N=C2SC(c3ccc(N)cc3)=NN12 | 69.3 µM (inactive) | 27.9 µM (inactive) | > 100 µM (inactive) | > 70.6 µM (inactive) | > 83.8 µM (inactive) | 49.7 µM (inactive) | 55.7 µM (inactive) | > 100 µM (inactive) | > 100 µM (inactive) | > 100 µM (inactive) | > 95.9 µM (inactive) | 46.9 µM (inactive) | 44.6 µM (inactive) | 51.8 µM (inactive)
CC1=C2O[B-](c3ccccc3)(c3ccccc3)[O+]=C2C=CN1 | 27.9 µM (inactive) | 34.8 µM (inactive) |  |  | 40 µM (inactive) |  | 41.2 µM (inactive) | 26.4 µM (inactive) | 29.6 µM (inactive) | > 100 µM (inactive) | 45.7 µM (inactive) |  | 21.2 µM (inactive) | 22.1 µM (inactive)
COc1ccc(N2C(=O)[C@@H]3[C@@H]4CC(C)CC[C@@H]4c4c([nH]c5ccccc45)[C@@H]3C2=O)cc1 (some centres not stated) | 7.36 µM (inactive) | 24.2 µM (inactive) | 13.5 µM (inactive) | 50.1 µM (inactive) | 26.4 µM (inactive) | > 77.6 µM (inactive) | 12.8 µM (inactive) |  | 36 µM (inactive) | 7.98 µM (inactive) | 11.2 µM (inactive) | 12.6 µM (inactive) | 15.9 µM (inactive) | 5.92 µM (inactive)
CN(Cc1ccccc1)C(=NC#N)N(C)Cc1ccccc1 | > 100 µM (inactive) |  | > 100 µM (inactive) | > 100 µM (inactive) | > 100 µM (inactive) |  | > 100 µM (inactive) |  | > 100 µM (inactive) | > 100 µM (inactive) | > 100 µM (inactive) |  | > 100 µM (inactive) | > 100 µM (inactive)
CN(C)c1nc(N(C)C)nc(N(C)CN(C)c2ccc(Cl)cc2)n1 | > 100 µM (inactive) | > 100 µM (inactive) |  | > 100 µM (inactive) |  |  | > 100 µM (inactive) | > 100 µM (inactive) | > 100 µM (inactive) | > 100 µM (inactive) | > 100 µM (inactive) |  | > 100 µM (inactive) | 
